Earlier results on five molecules are cited in patent publication US20060134226A1, “Compositions useful to treat ocular neovascular diseases and macular degeneration” (priority 2004, published 2006).

The conditions of data set [1]: about 200 mg dosage of zinc per day.
The subject of data set [2] is macular degeneration changes. Conditions: 80 mg of zinc, versus placebo.
The conditions of data set [3]: in vivo.
The conditions of data set [4]: consumed daily.
Test in data set [5]: not given
This is another data set of the same source.

For data set [6] the following is noted: oral dose of 600 mg tid, long periods of time, patients with chronic bronchitis and emphysema.
The conditions of data set [7]: in vivo. The source holds these as a separate data set.

A value given as a limit tells only on which side of the number the result lay.

For `[Zn]` [zinc], in data set [1], the side effects result is “potential side effects such as anemia”. Further, the “retarding macular degeneration changes” value in data set [2] is given as “significantly better than placebo”.
Turning to beta carotene [beta-carotene], under “20 mg/day of beta-carotene”, the “risk among male smokers” value is given as “increased risk of lung cancer” and the “risk in men with previous myocardial infarction” value is given as “increased risk of fatal coronary heart attacks”. Moreover, the “dosage level with no observed adverse effects” value (healthy, non-smokers) is not above 25 mg per day. Also, in data set [3], the “efficiency of conversion to vitamin A in the body” value is “approximately 50%”.
Regarding `O=C1O[C@H]([C@@H](O)CO)C(O)=C1O` [vitamin C, ascorbic acid], in data set [4], the “daily intake without any known adverse effects” value was ≥ 1,000 mg.
Regarding `CC(=O)N[C@@H](CS)C(=O)O` [NAC, N-acetylcysteine], the “dose excreted in the urine” value in data set [5] (after 24 hours) is reported as “approximately 22%”. Besides, in data set [5] (humans), the mean plasma half-life result is “about 1.35 hours”. In addition, the “absorption of radiolabelled NAC” value in data set [5] (humans, one hour after administration) was “rapidly absorbed”. In addition, in data set [6], the tolerability result was “well tolerated”.
Consider `CC(=O)Oc1c(C)c(C)c2c(c1C)CC[C@@](C)(CCC[C@H](C)CCC[C@H](C)CCCC(C)C)O2` (racemic) [dl-alpha tocopheryl acetate], for which, in data set [7], the “level at which no adverse effects have been observed” value is listed as not above 800 mg.
